Among the data in patent EP4617278A1, “NUCLEOTIDE ANALOG, AND COMPOSITION AND USE THEREOF” (priority 2022, dated 2024) are EC50 values, retold here.

pEC50: −log10 of the molar value.

The first test deals with RSV A2 virus. The experiment in a line: RSV CPE assay. As to conditions: human respiratory syncytial virus, HEp-2, 120 h, read-out: RSV A2 (Hep-2 cell) EC50.
Take `CC(C)C(=O)O[C@H]1[C@@H](OC(=O)C(C)C)[C@](C#N)(c2ccc3c(N)ncnn23)O[C@@H]1CO[P@](=O)(N[C@@H](CC(=O)OC1CCC1)C(=O)OC1CCC1)Oc1ccccc1` [Compound 54a, (2R,3R,4R,5R)-2-(4-aminopyrrolo[2,1-f][1,2,4]triazin-7-yl)-2-cyano-5-((((R)-(((S)-1,4-dicyclobutoxy-1,4-dioxobutan-2-yl)amino)(phenoxy)phosphoryl)oxy)methyl)tetrahydrofuran-3,4-diyl bis(2-methylpropionate)]: the pEC50 was 6.70 to 7.00. Consider `CC(C)C(=O)O[C@H]1[C@@H](OC(=O)C(C)C)[C@](C#N)(c2ccc3c(N)ncnn23)O[C@@H]1COP(=O)(OCCSC(=O)C(C)(C)C)OCCSC(=O)C(C)(C)C` [Compound 30, (2R,3R,4R,5R)-2-(4-aminopyrrolo[2,1-f][1,2,4]triazin-7-yl)-5-((((bis(2-(pivaloylthio)ethoxy))phosphoryl)oxy)methyl)-2-cyanotetrahydrofuran-3,4-diyl bis(2-methylpropionate)], for which the pEC50 was 6.30 to 6.70. On the same count and under the same terms, for `CCCCCOC(=O)C[C@H](N[P@@](=O)(OC[C@H]1O[C@@](C#N)(c2ccc3c(N)ncnn23)[C@H](OC(=O)C(C)C)[C@@H]1OC(=O)C(C)C)Oc1ccc(C(C)(C)C)cc1)C(=O)OCCCCC` [Compound 39a, (2R,3R,4R,5R)-2-(4-aminopyrrolo[2,1-f][1,2,4]triazin-7-yl)-2-cyano-5-((((R)-(((S)-1,4-dipentyloxy-1,4-dioxobutan-2-yl)amino)(4-tert-butylphenoxy)phosphoryl)oxy)methyl)tetrahydrofuran-3,4-diyl bis(2-methylpropionate)] the value was greater than 7.00. On the same count and under the same terms, the same measure for `CC(C)(C)C(=O)O[C@H]1[C@@H](OC(=O)C(C)(C)C)[C@](C#N)(c2ccc3c(N)ncnn23)O[C@@H]1CO[P@](=O)(N[C@@H](CC(=O)OC1CCC1)C(=O)OC1CCC1)Oc1ccccc1` [Compound 57a, (2R,3R,4R,5R)-2-(4-aminopyrrolo[2,1-f][1,2,4]triazin-7-yl)-2-cyano-5-((((R)-(((S)-1,4-dicyclobutoxy-1,4-dioxobutan-2-yl)amino)(phenoxy)phosphoryl)oxy)methyl)tetrahydrofuran-3,4-diyl bis(2,2-dimethylpropionate)]: 6.00 to 6.30; for `CCC(CC)COC(=O)[C@H](C)N[P@@](=O)(OCOC(=O)C(C)(C)C)OC[C@H]1O[C@@](C#N)(c2ccc3c(N)ncnn23)[C@H](OC(=O)C(C)C)[C@@H]1OC(=O)C(C)C` [Compound 11b, (2R,3R,4R,5R)-2-(4-aminopyrrolo[2,1-f][1,2,4]triazin-7-yl)-2-cyano-5-((((S)-(((S)-1-(2-ethylbutoxy)-1-oxopropan-2-yl)amino)((pivaloyloxy)methoxy)phosphoryl)oxy)methyl)tetrahydrofuran-3,4-diyl bis(2-methylpropionate)]: 6.30 to 6.70; for `CCCCCOC(=O)C[C@H](N[P@](=O)(OC[C@H]1O[C@@](C#N)(c2ccc3c(N)ncnn23)[C@H](OC(=O)C(C)C)[C@@H]1OC(=O)C(C)C)Oc1ccc(C(C)(C)C)cc1)C(=O)OCCCCC` [Compound 39b, (2R,3R,4R,5R)-2-(4-aminopyrrolo[2,1-f][1,2,4]triazin-7-yl)-2-cyano-5-((((S)-(((S)-1,4-dipentyloxy-1,4-dioxobutan-2-yl)amino)(4-tert-butylphenoxy)phosphoryl)oxy)methyl)tetrahydrofuran-3,4-diyl bis(2-methylpropionate)]: greater than 7.00. Same read-out and setting: for `CCC(CC)COC(=O)[C@H](C)N[P@](=O)(OCOC(=O)OC(C)C)OC[C@H]1O[C@@](C#N)(c2ccc3c(N)ncnn23)[C@H](OC(=O)C(C)C)[C@@H]1OC(=O)C(C)C` [Compound 7a, (2R,3R,4R,5R)-2-(4-aminopyrrolo[2,1-f][1,2,4]triazin-7-yl)-2-cyano-5-((((R)-(((S)-1-(2-ethylbutoxy)-1-oxopropan-2-yl)amino)(((isopropoxycarbonyl)oxy)methoxy)phosphoryl)oxy)methyl)tetrahydrofuran-3,4-diyl bis(2-methylpropionate)] the value was 6.30 to 6.70.

On to `CC(C)OC(=O)OCOP(=O)(OCOC(=O)OC(C)C)OC[C@H]1O[C@@](C#N)(c2ccc3c(N)ncnn23)[C@H](OC(=O)C(C)C)[C@@H]1OC(=O)C(C)C` [Compound 19, (2R,3R,4R,5R)-2-(4-aminopyrrolo[2,1-f][1,2,4]triazin-7-yl)-5-((((bis(((isopropoxycarbonyl)oxy)methoxy))phosphoryl)oxy)methyl)-2-cyanotetrahydrofuran-3,4-diyl bis(2-methylpropionate)], for which the pEC50 was 6.30 to 6.70. The same measure, in the same setting: the same measure for `CCC(CC)COC(=O)[C@H](Cc1ccccc1)N[P@](=O)(OC[C@H]1O[C@@](C#N)(c2ccc3c(N)ncnn23)[C@H](OC(=O)C(C)C)[C@@H]1OC(=O)C(C)C)Oc1ccccc1` [Compound 41b, (2R,3R,4R,5R)-2-(4-aminopyrrolo[2,1-f][1,2,4]triazin-7-yl)-2-cyano-5-((((S)-(((S)-1-(2-ethylbutoxy)-1-oxo-3-phenylpropan-2-yl)amino)(phenoxy)phosphoryl)oxy)methyl)tetrahydrofuran-3,4-diyl bis(2-methylpropionate)]: greater than 7.00.

Consider `COC(C)(C)COC(=O)[C@H](Cc1ccccc1)N[P@](=O)(OC[C@H]1O[C@@](C#N)(c2ccc3c(N)ncnn23)[C@H](OC(=O)C(C)C)[C@@H]1OC(=O)C(C)C)Oc1ccccc1` [Compound 64b, (2R,3R,4R,5R)-2-(4-aminopyrrolo[2,1-f][1,2,4]triazin-7-yl)-2-cyano-5-((((S)-(((S)-1-(2-methoxy-2-methylpropoxy)-1-oxo-3-phenylpropan-2-yl)amino)(phenoxy)phosphoryl)oxy)methyl)tetrahydrofuran-3,4-diyl bis(2-methylpropionate)], for which the pEC50 was greater than 7.00. Still for that read-out and setting: the same measure for `CC(C)OC(=O)OCO[P@](=O)(N[C@@H](C)C(=O)OC(C)C)OC[C@H]1O[C@@](C#N)(c2ccc3c(N)ncnn23)[C@H](OC(=O)C(C)C)[C@@H]1OC(=O)C(C)C` [Compound 3b, (2R,3R,4R,5R)-2-(4-aminopyrrolo[2,1-f][1,2,4]triazin-7-yl)-2-cyano-5-((((S)-(((S)-1-isopropoxy-1-oxopropan-2-yl)amino)(((isopropoxycarbonyl)oxy)methoxy)phosphoryl)oxy)methyl)tetrahydrofuran-3,4-diyl bis(2-methylpropionate)]: 6.70 to 7.00.

Turning to `CC(C)(C)C(=O)O[C@H]1[C@@H](OC(=O)C(C)(C)C)[C@](C#N)(c2ccc3c(N)ncnn23)O[C@@H]1CO[P@](=O)(N[C@H](C=O)CC(=O)OC1(C2CCCC2)CCCC1)Oc1ccccc1` [Compound 61a, (2R,3R,4R,5R)-2-(4-aminopyrrolo[2,1-f][1,2,4]triazin-7-yl)-2-cyano-5-((((R)-(((S)-1,4-bicyclopentyloxy-1,4-dioxobutan-2-yl)amino)(phenoxy)phosphoryl)oxy)methyl)tetrahydrofuran-3,4-diyl bis(2,2-dimethylpropionate)], the pEC50 is less than 6.00.

Still in this test, the particulars now being: read-out: RSV A2 (Hep-2 cell) EC50; HEp-2 cells, RSV A2 virus, 5 days, CCK8.
Regarding “(2R,3R,4R,5R)-2-(4-aminopyrrolo[2,1-f][1,2,4]triazin-7-yl)-2-cyano-5-((((S)-(((S)-1,4-bicyclopentyloxy-1,4-dioxobutan-2-yl)amino)(phenoxy)phosphoryl)oxy)methyl)tetrahydrofuran-3,4-diyl dipropionate [Compound 59b]”, the pEC50 was greater than 7.00. For “(2R,3R,4R,5R)-2-(4-aminopyrrolo[2,1-f][1,2,4]triazin-7-yl)-2-cyano-5-((((R)-(((S)-1-(2-ethylbutoxy)-1-oxopropan-2-yl)amino)(((isopropoxycarbonyl)oxy)methoxy)phosphoryl)oxy)methyl)tetrahydrofuran-3,4-diyl diacetate [Compound 5a]”, the pEC50 was 6.30 to 6.70.

As to “(2R,3R,4R,5R)-2-(4-aminopyrrolo[2,1-f][1,2,4]triazin-7-yl)-5-((((bis(((isopropoxycarbonyl)oxy)methoxy))phosphoryl)oxy)methyl)-2-cyanotetrahydrofuran-3,4-diyldiisopropyl bis(carbonate) [Compound 28]”, the pEC50 is less than 6.00. As to “(2R,3R,4R,5R)-2-(4-aminopyrrolo[2,1-f][1,2,4]triazin-7-yl)-2-cyano-5-((((R)-(((S)-1,4-dicyclobutoxy-1,4-dioxobutan-2-yl)amino)(phenoxy)phosphoryl)oxy)methyl)tetrahydrofuran-3,4-diyl diacetate [Compound 55a]”, the pEC50 is 6.70 to 7.00.

Consider `CC(C)C(=O)O[C@H]1[C@@H](OC(=O)C(C)C)[C@](C#N)(c2ccc3c(N)ncnn23)O[C@@H]1CO[P@](=O)(N[C@@H](Cc1ccccc1)C(=O)OC1CCC1)Oc1ccccc1` [Compound 63a], for which the pEC50 was 6.30 to 6.70. Still for that read-out and setting: the same measure for “(2R,3R,4R,5R)-2-(4-aminopyrrolo[2,1-f][1,2,4]triazin-7-yl)-2-cyano-5-((((S)-(((S)-1-(2-ethylbutoxy)-1-oxopropan-2-yl)amino)(((isopropoxycarbonyl)oxy)methoxy)phosphoryl)oxy)methyl)tetrahydrofuran-3,4-diyl diacetate [Compound 5b]”: 6.70 to 7.00; for “(2R,3R,4R,5R)-2-(4-aminopyrrolo[2,1-f][1,2,4]triazin-7-yl)-2-cyano-5-((((S)-(((S)-1-isopropoxy-1-oxopropan-2-yl)amino)(((isopropoxycarbonyl)oxy)methoxy)phosphoryl)oxy)methyl)tetrahydrofuran-3,4-diyl diacetate [Compound 1b]”: 6.70 to 7.00.
